Test results taken from patent publication US11447460B2, “Compounds and compositions for treating conditions associated with NLRP activity” (Novartis AG, priority 2016, dated 2022).

Test system: IL-1β production in PMA-differentiated THP-1 cells
Test: IL-1β production in PMA-differentiated THP-1 cells stimulated with gramicidin (hTHP-1 assay, 2% bovine serum; Bioassays 1 and 2)
Format: cell-based, human
Conditions: Homo sapiens, THP-1; hTHP-1 assay containing 2% bovine serum; Table 12, by Example #; read-out: Average IC50 of compounds in hTHP-1 assay
Summary of the method: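 PMA-differentiated THP-1 cells in 2% FBS RPMI were pre-treated with compound for 1 h, then given gramicidin 5 μM for 2 h, and supernatants were assayed to give IC50. Protocol 1: PMA 10 μg/ml 24 h, 1×10^6 cells/ml, ELISA, 1% DMSO. Protocol 2: PMA 20 ng/ml 16-18 h, 50,000 cells/well, HTRF, 0.38% DMSO.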

Row | SMILES | IC50
1 | CC(C)c1cc(C(F)(F)F)cc(C(C)C)c1CC(=O)NS(=O)(=O)c1ncc(C(C)(C)O)s1 [Example 72, 2-(2,6-diisopropyl-4-(trifluoromethyl)phenyl)-N-(5-(2-hydroxypropan-2-yl)thiazol-2-ylsulfonyl)acetamide] | 1 to 5 µM
2 | COC(C)(C)c1cnc(S(=O)(=O)NC(=O)Cc2c(C(C)C)cc(F)cc2C(C)C)s1 [Example 73, 2-(4-fluoro-2,6-diisopropylphenyl)-N-(5-(2-methoxypropan-2-yl)thiazol-2-ylsulfonyl)acetamide] | 1 to 5 µM
3 | COC(C)(C)c1cnc(S(=O)(=O)NC(=O)Cc2c(C(C)C)cc(C#N)cc2C(C)C)s1 [Example 74, 2-(4-cyano-2,6-diisopropylphenyl)-N-(5-(2-methoxypropan-2-yl)thiazol-2-ylsulfonyl)acetamide] | 5 to 15 µM
4 | CC(C)c1cc(F)cc(C(C)C)c1CC(=O)NS(=O)(=O)c1cnc(C(C)(C)O)s1 [Example 75, 2-(4-fluoro-2,6-diisopropylphenyl)-N-(2-(2-hydroxypropan-2-yl)thiazol-5-ylsulfonyl)acetamide] | < 1 µM
5 | CC(C)c1cc(F)c(F)c(C(C)C)c1CC(=O)NS(=O)(=O)c1ncc(C(C)(C)O)s1 [Example 76, 2-(3,4-difluoro-2,6-diisopropylphenyl)-N-(5-(2-hydroxypropan-2-yl)thiazol-2-ylsulfonyl)acetamide] | < 1 µM
6 | CC(C)c1c(F)cc(F)c(C(C)C)c1CC(=O)NS(=O)(=O)c1ncc(C(C)(C)O)s1 [Example 77, 2-(3,5-difluoro-2,6-diisopropylphenyl)-N-(5-(2-hydroxypropan-2-yl)thiazol-2-ylsulfonyl)acetamide] | 1 to 5 µM
7 | CC(C)(O)c1cnc(S(=O)(=O)NC(=O)Cc2c(C3CC3)cccc2C2CC2)s1 [Example 78, 2-(2,6-dicyclopropylphenyl)-N-(5-(2-hydroxypropan-2-yl)thiazol-2-ylsulfonyl)acetamide] | 5 to 15 µM
8 | CC(C)c1cc(Cl)cc(C(F)(F)F)c1CC(=O)NS(=O)(=O)c1ncc(C(C)(C)O)s1 [Example 79, 2-(4-chloro-2-isopropyl-6-(trifluoromethyl)phenyl)-N-(5-(2-hydroxypropan-2-yl)thiazol-2-ylsulfonyl)acetamide] | 15 to 60 µM
9 | CC(C)c1cccc(C2CC2)c1CC(=O)NS(=O)(=O)c1ncc(C(C)(C)O)s1 [Example 80, 2-(2-cyclopropyl-6-isopropylphenyl)-N-(5-(2-hydroxypropan-2-yl)thiazol-2-ylsulfonyl)acetamide] | 5 to 15 µM
10 | CC(C)c1cc(F)cc(C(C)C)c1CC(=O)NS(=O)(=O)c1nc(C(C)(C)O)cs1 [Example 81, 2-(4-fluoro-2,6-diisopropylphenyl)-N-(4-(2-hydroxypropan-2-yl)thiazol-2-ylsulfonyl)acetamide] | 15 to 60 µM
11 | CC(C)c1cc(C#N)cc(C(C)C)c1CC(=O)NS(=O)(=O)c1nc(C(C)(C)O)cs1 [Example 82, 2-(4-cyano-2,6-diisopropylphenyl)-N-(4-(2-hydroxypropan-2-yl)thiazol-2-ylsulfonyl)acetamide] | 15 to 60 µM
12 | CC(C)c1c(F)c(Cl)c(F)c(C(C)C)c1CC(=O)NS(=O)(=O)c1ncc(C(C)(C)O)s1 [Example 83, 2-(4-chloro-3,5-difluoro-2,6-diisopropylphenyl)-N-(5-(2-hydroxypropan-2-yl)thiazol-2-ylsulfonyl)acetamide] | < 1 µM
13 | CC(C)c1cnc(S(=O)(=O)NC(=O)Cc2c(C(C)C)cc(F)cc2C(C)C)s1 [Example 84, 2-(4-fluoro-2,6-diisopropylphenyl)-N-(5-isopropylthiazol-2-ylsulfonyl)acetamide] | 5 to 15 µM
14 | CC(C)c1cc(OC(F)(F)F)cc(C(C)C)c1CC(=O)NS(=O)(=O)c1ncc(C(C)(C)O)s1 [Example 85, 2-(2,6-diisopropyl-4-(trifluoromethoxy)phenyl)-N-(5-(2-hydroxypropan-2-yl)thiazol-2-ylsulfonyl)acetamide] | 1 to 5 µM
15 | CCc1cc(F)cc(CC)c1CC(=O)NS(=O)(=O)c1ncc(C(C)(C)O)s1 [Example 86, 2-(2,6-diethyl-4-fluorophenyl)-N-(5-(2-hydroxypropan-2-yl)thiazol-2-ylsulfonyl)acetamide] | 5 to 15 µM
16 | CC(C)(O)c1cnc(S(=O)(=O)NC(=O)Cc2cc(C(F)(F)F)ccc2Cl)s1 [Example 87, 2-(2-chloro-5-(trifluoromethyl)phenyl)-N-(5-(2-hydroxypropan-2-yl)thiazol-2-ylsulfonyl)acetamide] | 15 to 60 µM
17 | COc1c(Cl)cc(Cl)cc1CC(=O)NS(=O)(=O)c1ncc(C(C)(C)O)s1 [Example 88, 2-(3,5-dichloro-2-methoxyphenyl)-N-(5-(2-hydroxypropan-2-yl)thiazol-2-ylsulfonyl)acetamide] | 15 to 60 µM
18 | CC(C)c1cc(F)cc(C(C)C)c1CC(=O)NS(=O)(=O)c1ncc(C(C)(C)O)s1 [Example 89, 2-(4-Fluoro-2,6-diisopropylphenyl)-N-(5-(2-hydroxypropan-2-yl)thiazol-2-ylsulfonyl)acetamide] | 1 to 5 µM
19 | CC(C)c1cc(F)cc(C(C)C)c1CC(=O)NS(=O)(=O)c1ncc(CO)s1 [Example 91, 2-(4-Fluoro-2,6-diisopropylphenyl)-N-(5-(hydroxymethyl)thiazol-2-ylsulfonyl)acetamide] | 15 to 60 µM
20 | CC(C)c1cc(F)cc(C(C)C)c1CC(=O)NS(=O)(=O)c1ncc(C(C)O)s1 (stereo not shown) [Example 92, 2-(4-fluoro-2,6-diisopropylphenyl)-N-(5-(1-hydroxyethyl)thiazol-2-ylsulfonyl)acetamide] | 1 to 5 µM
21 | CC(C)c1cc(C#N)cc(C(C)C)c1CC(=O)NS(=O)(=O)c1ncc(C(C)O)s1 (stereo not shown) [Example 93, 2-(4-cyano-2,6-diisopropylphenyl)-N-(5-(1-hydroxyethyl)thiazol-2-ylsulfonyl)acetamide] | 1 to 5 µM
22 | CC(C)c1cc(F)cc(C(C)C)c1CC(=O)NS(=O)(=O)c1ccc(C(C)(C)O)c(CO)c1 [Example 94, 2-(4-fluoro-2,6-diisopropylphenyl)-N-(3-(hydroxymethyl)-4-(2-hydroxypropan-2-yl)phenylsulfonyl)acetamide] | 1 to 5 µM
23 | CC(C)c1cc(C#N)cc(C(C)C)c1CC(=O)NS(=O)(=O)c1ccc(C(C)(C)O)c(CO)c1 [Example 95, 2-(4-cyano-2,6-diisopropylphenyl)-N-(3-(hydroxymethyl)-4-(2-hydroxypropan-2-yl)phenylsulfonyl)acetamide] | 1 to 5 µM
24 | CC(C)c1cc(F)cc(C(C)C)c1CC(=O)NS(=O)(=O)c1ncc(C(C)CO)s1 (stereo not shown) [Example 96, 2-(4-Fluoro-2,6-diisopropylphenyl)-N-(5-(1-hydroxypropan-2-yl)thiazol-2-ylsulfonyl)acetamide] | 5 to 15 µM
25 | CC(C)c1cc(F)cc(C(C)C)c1CC(=O)NS(=O)(=O)c1ncc(CCO)s1 [Example 97, 2-(4-fluoro-2,6-diisopropylphenyl)-N-(5-(2-hydroxyethyl)thiazol-2-ylsulfonyl)acetamide] | 5 to 15 µM
